The values that follow come from a melting point compilation (Tetko et al.).

`O=[N+]([O-])c1ccc(-c2nnc3n2CN(c2ccc([N+](=O)[O-])cc2)CS3)cc1`: the melting point amounted to 320 °C.
On to `Sc1ccc2ccccc2c1`, for which the melting point worked out at 81 °C.
With `O=c1oc(-c2c(F)cccc2Cl)cc2ccccc12`, the melting point stood at 241 °C.
Then `CC(C(=O)O)c1ccc(CBr)cc1` (stereo unspecified), with 123 to 128 °C.
As to `O=[N+]([O-])c1ccc2c(c1)OCCOCCOCCOCCO2`, the melting point was in the range of 95 to 98 °C.
As for `O=Cc1ccc(CBr)cc1`, the melting point lay in the range of 99 to 100 °C.
In turn, `O=C(Cl)c1csc(-c2cccs2)n1` registered a melting point of 93 to 94 °C.
In the case of `CC1(C)N=C(c2ccccc2)C(C)(C)N1O`, the melting point was 78.6 to 80.4 °C.
Regarding `CCCCCCCCCCCCCC=CC(O)C(CO)NC(C)=O` (stereo unspecified), the melting point is 93 to 96 °C.
The compound `CC(N)(Cc1ccc(O)cc1)C(=O)O` (stereo unspecified) yielded a melting point of 312 °C.
Take `CCC(C)Nc1c([N+](=O)[O-])cc(C(C)(C)C)cc1[N+](=O)[O-]` (stereo unspecified): the melting point turned out to be 60 °C.
Then `Cc1c(NC(=O)c2cccnc2)c(=O)n(-c2ccccc2)n1C`, with 253 °C; and `O=COC1OC(=O)c2ccccc21` (stereo unspecified), with 82 °C; and `O=C(O)C=CC(=O)c1ccccc1`, with 91 to 96 °C.
In the case of `CC(=O)Nc1ccc([N+](=O)[O-])c(F)c1`, the melting point was 176 °C.
Compound `O=Cc1cc(F)cc2c1OCOC2` displayed a melting point of 113 to 114 °C.
For the compound `COc1cc(C(=O)O)cc(Cl)c1O`, the melting point is 245 °C.
`CC(C)(C)NC(=S)c1cc(C(C)(C)C)c(O)c(C(C)(C)C)c1` had a melting point of 203 to 204 °C.
On to `N#Cc1ccncc1Cl`, for which the melting point stood at 72.5 °C.
Turning to `Nc1ccc(-n2cccn2)cc1`, the melting point is 54 to 55 °C.
For the compound `Cc1ccsc1C(=O)O`, the melting point is 147 °C.
On to `Cc1cccc(N/N=C(\C#N)c2nc(C)c(/N=N/c3ccccc3)s2)c1`, for which the melting point was 211 °C.
For `CN(C)C(=S)SSC(=S)N(C)C`, the melting point turned out to be 156 °C.
`COc1cc2nc(N3CCN(C(=O)c4ccco4)CC3)nc(N)c2cc1OC` had a melting point of 285 °C.
The compound `O=C1NC(=O)C2(CCc3ccccc3C2)N1` (stereo unspecified) registered a melting point of 268 °C.
Regarding `O=[N+]([O-])c1ccc2c(c1)-c1ccc([N+](=O)[O-])c3cccc-2c13`, the melting point turned out to be 223 °C.
Then `O=[N+]([O-])c1ccc2c(c1)-c1cccc([N+](=O)[O-])c1C2`, with 284 to 288 °C; and `CNC(=O)Oc1ccc2c(c1)C1(C)CCN(C)C1N2C` (stereo unspecified), with 106 °C.
Turning to `O=Cc1cnc2ccccc2n1`, the melting point lay in the range of 108 to 111 °C.
Regarding `O=C(CCl)N(c1ccccc1)C1CCCCC1`, the melting point was in the range of 103 to 105 °C.
In the case of `CCC(C)(C)N`, the melting point was -105 °C.
For the compound `C1=CC2(CC2)C2C1C1C=CC2C12CC2` (stereo unspecified), the melting point was determined as 45 °C.
On to `Nc1cc2c3ccccc3ccc2c2ccccc12`, for which the melting point was found to be 210 °C.
Consider `Sc1nc2cc(Cl)c(Cl)cc2[nH]1`, for which the melting point was 300 °C.
Then `COc1ccc(N/N=C2\C(=O)N(CO)N=C2C(F)(F)F)cc1`, with 142 °C; and `COc1cc(Cl)c(OC)cc1Cl`, with 134 °C.
Then `CC12CCC(C(C(Br)N(O)c3ccccc3)C1=O)C2(C)C` (stereo unspecified), with 121 °C; and `OC(c1c(F)c(F)c(F)c(F)c1F)c1c(F)c(F)c(F)c(F)c1F`, with 76 to 80 °C; and `CCOC(=O)C1(C)OC(=O)N(c2cc(Cl)cc(Cl)c2)C1=O` (stereo unspecified), with 113 °C.
`CC(C)(C)OC(=O)N1c2ccccc2CC1CO` (stereo unspecified) returned a melting point of 84 to 89 °C.
Then `CCOC(=O)C1=C(C)NC(C)=C(C(=O)OCC)C1c1ccc2c(c1)OCO2`, with 135 °C.
Then `N#C/C(=C\c1cccc(O)c1)c1nc2ccccc2[nH]1`, with 299 to 300 °C; and `Nc1cc(F)c(F)cc1C(=O)O`, with 182 °C; and `O=[N+]([O-])c1ccc(C2Nn3c(nnc3-c3ccccc3)S2)cc1` (stereo unspecified), with 225 °C.
In turn, `Cn1c(=O)c(C2=NNC(=O)C2=Cc2c(O)ccc3ccccc23)c(O)c2ccccc21` gave a melting point of 285 °C.
Then `C#CCNC(N)=O`, with 130 to 131 °C; and `COC(=O)c1ccc2c(C=O)cn(C(=O)OC(C)(C)C)c2c1`, with 214 to 215 °C; and `COc1cc(C(=O)O)c([N+](=O)[O-])c(OC)c1OC`, with 166 to 169 °C.
Then `O=Cc1cn(S(=O)(=O)c2ccccc2)c2ccccc12`, with 156 to 157 °C.
Then `N#Cc1cccc(C(=O)Cc2cccc(Oc3ccccc3)c2)c1`, with 63.7 to 65.5 °C; and `Cc1cc([N+](=O)[O-])cc(Br)c1N`, with 177 to 183 °C.
The compound `O=CC(F)(F)C(F)(F)C(F)(F)C(F)(F)C(F)(F)C(F)(F)C(F)(F)C(F)(F)Cl` showed a melting point of 36 to 38 °C.
Then `Cc1cc(C)n2nc(N)c(Cc3ccc(F)cc3)c2n1`, with 208 to 210 °C; and `OCc1cc2ccccc2s1`, with 100 °C; and `COC1C(O)C(O)C(O)C(O)C1O` (single isomer, unassigned; (-)), with 190 to 198 °C.
The compound `O=S(=O)(c1ccccc1)n1ccc2ccccc21` returned a melting point of 78 to 80 °C.
In turn, `O=[N+]([O-])c1ccc2c(c1)OCCOCCOc1ccccc1OCCOCCO2` had a melting point of 190 to 195 °C.
Consider `COc1cc2c(cc1OC)C(c1ccc(F)cc1)N(C(C)=O)CC2` (stereo unspecified), for which the melting point lay in the range of 162 to 164 °C.
`C=Cc1cccc(CC)c1` had a melting point of -101 °C.
`OCCCC(Cl)(Cl)CO` returned a melting point of 40 to 42 °C.
The compound `CCOC(=O)C(C)C(O)(c1ccccc1)c1ccccc1` (stereo unspecified) came in with a melting point of 102 °C.
Then `Cc1c(Cl)ccc([N+](=O)[O-])c1Cl`, with 54 °C; and `Nc1ccccc1/C=C/c1ccccc1`, with 106 °C.
Then `O=S(=O)(c1ccc(N=C=S)cc1)N1CCCCC1`, with 126 to 127 °C; and `Cn1cc([N+](=O)[O-])c(=O)[nH]c1=O`, with 267 to 270 °C; and `CC(=O)c1cc(O)cc(O)c1`, with 143 to 147 °C.
`CC(=O)Oc1c(-c2ccccc2)[nH]c2cc([N+](=O)[O-])ccc12` displayed a melting point of 191 °C.
`Cc1cc(C)c(C2(C)CC(C(=NNC(N)=S)c3cc4ccccc4o3)C2)c(C)c1` (stereo unspecified): the melting point was 258 to 259 °C.
Then `Nc1nn2c(C(F)(F)F)cc(=O)[nH]c2c1/N=N/c1cccc(F)c1`, with 305 to 306 °C.
For the compound `CSC(SC)=C(C#N)C(=O)c1cccc(C)c1`, the melting point fell in the range of 53 to 55 °C.
Compound `CC(=O)Oc1ccc(O)cc1` had a melting point of 62 °C.
`Nc1cccc(Cl)n1` gave a melting point of 71 °C.
Turning to `COC(=O)C1(S(=O)(=O)c2ccc(Br)cc2)CC1`, the melting point was determined as 124 °C.
Compound `O=c1cc(-c2ccccc2)oc2ccc3ccccc3c12` returned a melting point of 164 °C.
`CC(=O)Nc1ccccc1C#Cc1ccccc1` had a melting point of 118 to 119 °C.
`CC(=O)Oc1ccc(Cl)cc1` returned a melting point of 9 °C.
`Nc1ccccc1N1CCNCC1` had a melting point of 115 °C.
The compound `CCOC(=O)Nc1nc(N)c(C(N)=O)s1` yielded a melting point of 168 to 170 °C.
The compound `O=C(O)C1(C(F)(F)F)CCCC1` returned a melting point of 37 °C.
The compound `CC(C)(C)c1cc(N)[nH]n1` yielded a melting point of 60 to 62 °C.
With `O=C(O)c1ccc(Br)c([N+](=O)[O-])c1`, the melting point amounted to 204 °C.
In turn, `Brc1ccc2sccc2c1` registered a melting point of 47 to 48 °C.
In the case of `O=S(=O)(Cl)c1ccc(F)cc1Cl`, the melting point amounted to 30 °C.
As to `O=S(=O)(O)c1ccc(Nc2ccccc2)cc1`, the melting point is 206 °C.
`CSC(=Nc1nccs1)SC` gave a melting point of 194 to 195 °C.
Regarding `CCCN(CCC)c1c([N+](=O)[O-])cc(C(F)(F)F)c(N)c1[N+](=O)[O-]`, the melting point stood at 124 °C.
The compound `CCOC(=O)C1=NN(c2ccccc2)C(=O)C1C(Br)C1(Br)C(=O)N(c2ccccc2)N=C1C(=O)OCC` (stereo unspecified) showed a melting point of 201 °C.
As for `CC1(c2ccccc2)CC(C(=NO)c2cc3ccccc3o2)C1` (stereo unspecified), the melting point lay within 200 to 201 °C.
As for `Clc1cc2c(c(Cl)c1Cl)Oc1c(Cl)c(Cl)c(Cl)c(Cl)c1O2`, the melting point was 264 °C.
The compound `COc1ccc(C#N)c(Cl)c1OC` had a melting point of 102 °C.
Then `CCCCCCNC(=S)NCCCCCC`, with 39 to 41 °C.
Take `CC(=O)OC1=C(C(C)C)C(=O)C2=C(C1=O)C1(C)CCCC(C)(C)C1CC2OC(C)=O` (stereo unspecified): the melting point was found to be 121 °C.
Then `Clc1ccc2c(c1)Oc1cc(Cl)c(Cl)c(Cl)c1O2`, with 172 °C; and `NS(=O)(=O)c1cc2c(s1)SCCC2=O`, with 222 °C; and `CC(C)C(C(=O)O)c1ccccc1` (stereo unspecified), with 60 °C.
As for `CCC1COC(=O)O1` (stereo unspecified), the melting point is -45 °C.
`CC1=NN(c2ccccc2)C(=O)/C1=N\Nc1cccc(C(F)(F)F)c1` returned a melting point of 171 °C.
Take `CC(=O)Nc1cc(NC(C)=O)c(C=Cc2ccccc2)c([N+](=O)[O-])c1C=Cc1ccccc1`: the melting point was determined as 276 °C.
For the compound `Nc1nnc(C2CC2)[nH]1`, the melting point was 128 to 130 °C.
`COCC(=O)N(c1c(C)cccc1C)N1CCOC1=O` came in with a melting point of 104 °C.
Then `c1cncc(-c2ccnc(-c3cccnc3)c2)c1`, with 148 °C; and `O=Cc1cn2ccccc2n1`, with 78 to 79 °C; and `CCOC(=O)C1=C(C)NC(C)=C(C(=O)OC)C1c1cccc([N+](=O)[O-])c1` (stereo unspecified), with 158 °C.
On to `OCC(O)CC(F)(F)C(F)(F)C(F)(F)C(F)(F)C(F)(F)C(F)(F)C(F)(F)C(F)(F)F` (stereo unspecified), for which the melting point fell in the range of 114 to 116 °C.
Then `O=C(C=Cc1ccc(-c2cccc([N+](=O)[O-])c2)o1)c1ccccc1`, with 146 to 147 °C; and `CCOc1c(Nc2ccc(C(=O)O)cc2)c(=O)c1=O`, with 300 °C.
